Test results published in US10806819B2, “Wound coverings comprising vitamin d and related methods” (Marshall University Research Corporation, priority 2015, dated 2020).

How the values were obtained:
cell growth = details: direct administration; cited from earlier work
Pseudomonas aeruginosa = assay: antibacterial activity of U937 lysis solutions (CFU count on agar plates); format: cell-based; details: U937 treated with 5.0×10^−6 M for 5 days
Procedure: FIG. 8 is a graph showing the quantification of Pseudomonas aeruginosa CFUs treated by U937 lysis solutions. U937 were incubated in the presence of 1 mg/ml pristine PCL fibers, 0.52% DMSO, 5.0×10^−7 M 25(OH)D, 5.0×10^−6 M 25(OH)D, and 1 mg/ml plasma treated and 25(OH)D loaded PCL fibers (containing 5.0×10^−7M 25(OH)D equivalent amount based on the calculations from release profiles in the first 3 days) for 1, 3 and 5 days. Bacteria were incubated with cell lysis solutions and CFUs were counted on agar plates. Each data point represents arithmetic mean±SD values from three samples. Statistical significance was evaluated by student's t-test (*p<0.05).
This Example describes the antibacterial activities in cells treated with the PCL fibers produced in Example 1. Briefly, bacteria were incubated with cell lysis solutions and CFUs were counted on agar plates.

OKF6-TERT2 = details: recent study; cited from earlier work
[1] = tested on: LL-37 production in HaCat cells; assay: LL-37 ELISA of HaCat cell lysate; format: cell-based, human; details: 5.0×10^−7 M free drug
Procedure: (§1) This Example describes the production of LL-37 in cells treated with the PCL fibers produced in Example 1. Single cell suspensions of both HaCat cells (human keratinocyte cell line) and U937 cells (leukemic monocyte lymphoma cell line) were seeded in 6-cm culture dishes. 5.0×10^5, 2.0×10^5 and 1.0×10^5 cells were seeded in the culture dishes for 1-day, 3-day, and 5-day treatments, respectively. Cells were treated with different formulations as described above and harvested at each time point. The subconfluent HaCat cells and U937 cell suspensions were washed with PBS twice. Subsequently, 300 μl of the M-PER mammalian protein extraction reagent with 0.1% protease inhibitor cocktail was added to […]. They were agitated for 20 min and lysate was collected and transferred to a 1.5-ml microcentrifuge tube. The samples were centrifuged at 14000×g for 40 min at 4° C. to pelletize the cell debris and the supernatant was transferred to a new tube for analysis. Total protein concentration was tested by MicroBCA kit before ELISA test. Concentrations of LL-37 in cell lysate were determined by LL-37 ELISA assay kit based on the manufacturer's instructions.

[2] = tested on: cathelicidin (hCAP18) in HaCat cells; assay: immunofluorescence assay of cathelicidin (hCAP18) expression in HaCat cells; format: cell-based, human
Procedure: (§2) This Example describes an immunofluorescence assay performed on cells treated with the PCL produced in Example 1. The cells were treated with different formulations as discussed above, the cells were rinsed with PBS twice and fixed with 4% paraformaldehyde for 30 min at 37° C. followed by incubation with TNBS (0.05% Triton-X100, 2% FBS in pH 7.2 PBS) for 30 minutes at room temperature prior to immunostaining. Goat anti-cathelicidin polyclonal antibody (1:200) was incubated to label intercellular cathelicidin at 4° C. overnight. Both the full length and cleaved C terminus of cathelicidin (hCAP18) were labeled. Mouse anti-goat IgG-FITC antibody (1:100) was incubated for 2 h after removal of primary antibody and washed with TNBS three times. Then, the secondary antibody was removed and washed by TNBS three times. Nuclei were counterstained with 10 μM DAPI in blue. Images were taken with a digital camera (Carl Zeiss). The exposure time for taking images for HaCat and U937 cells was fixed at 400 ms and 40 ms, respectively.

HaCat cells = assay: HaCat cell proliferation / cytotoxicity (cell counting); format: cell-based, human; details: 5.0×10^−6 M free drug
Procedure: (§3) This Example describes cell proliferation of cells treated with the PCL fibers produced in Example 1. Human keratinocyte cell line (HaCat) and monocyte cell line (U937) were cultured in D-MEM with 10% FCS and RPMI-1640 media with 10% FCS respectively. The cultures were maintained at 37° C. under 95% air and 5% CO2 until reaching 80% confluence. The subconfluent HaCat cells were dissociated with a 0.05% trypsin-EDTA and re-suspended in a fresh complete media. U937 cells were precipitated by 300 g centrifugation and then re-suspended in a fresh complete media. The single HaCat cell suspensions were created by gently pipetting up and down HaCat cell aggregates and then placed in 6-cm culture dishes and incubated for 1 day. At the beginning of experiments, 5.0×10^5, 2.0×10^5 and 1.0×10^5 cells were seeded in the culture dishes for 1-day, 3-day, and 5-day treatments, respectively. The media was then replaced by D-MEM containing 0.52% DMSO, D-MEM containing 5.0×10^−7 M 25(OH)D, D-MEM containing 5.0×10^−6 M 25(OH)D, D-MEM containing 1 mg/ml pristine PCL fibers, and D-MEM containing 1 mg/ml 25(OH)D loaded PCL fibers and incubated for 1, 3, and 5 days. Of note, 5.0×10^−6 M 25(OH)D was chosen as a control due to cytotoxicity in OKF6-TERT2 cells. […]
(§4) The HaCat cells and U937 cells were seeded in 24-well plates. […] The cell density was calculated based on the cell counting (FIGS. 5A-5B). […]

[3] = tested on: cathelicidin (hCAP18) in U937 cells; assay: immunofluorescence assay of cathelicidin (hCAP18) expression in U937 cells; format: cell-based, human
Procedure: as §2

U937 cells = assay: U937 cell proliferation / cytotoxicity (cell counting); format: cell-based, human; details: 5.0×10^−6 M, 3 days and 5 days
Procedure: as §3, §4

[4] = tested on: LL-37 production in U937 cells; assay: LL-37 ELISA of U937 cell lysate; format: cell-based, human; details: for amount of LL-37 produced from U937 cells: 5.0×10^−6 M
Procedure: as §1

Staphylococcus aureus = details: cited from earlier work

C=C1/C(=C\C=C2/CCC[C@]3(C)[C@@H]([C@H](C)CCCC(C)(C)O)CC[C@@H]23)C[C@@H](O)C[C@@H]1O [1,25-hydroxyvitamin D3]
concentration generating cytotoxicity and inhibition of cell growth (cell growth): 10^−7 M

C=C1CC[C@H](O)C/C1=C/C=C1\CCC[C@]2(C)[C@@H]([C@H](C)CCCC(C)(C)O)CC[C@@H]12 [25(OH)D, 25-hydroxyvitamin D3]
numbers of CFUs after incubation with U937 lysis solutions, versus other treatment groups (Pseudomonas aeruginosa): significantly lower numbers of CFUs
concentration toxic to OKF6-TERT2 (OKF6-TERT2): ≥ 5 µM
concentration with little cytotoxicity in OKF6-TERT2 (OKF6-TERT2): lower than 5.0×10^−7 M
production of hCAP 18 and LL-37 in HaCat cells [1]: failed to induce production of significant amount
hCAP 18 staining in HaCat cells ([2]; 5.0×10^−6 M, 3 days): positive green fluorescent staining
hCAP 18 expression in HaCat cells ([2]; 5.0×10^−7 M): did not demonstrate hCAP 18 expression
cytotoxic effects on HaCat cells (HaCat cells): marginal cytotoxic effects
change of fluorescence intensity (hCAP 18) of U937 cells ([3]; 5.0×10^−6 M, day 1 to day 3): increased
change of fluorescence intensity (expression level of hCAP 18) of U937 cells ([3]; 5.0×10^−6 M, day 3 to day 5): decreased
hCAP 18 expression in U937 cells ([3]; 5.0×10^−6 M, one day): exhibited expression of hCAP 18
cathelicidin staining in U937 cells ([3]; 5.0×10^−7 M, each time point): negative staining
proliferation rate of U937 cells (U937 cells): reduced dramatically
amount of LL-37 produced from U937 cells ([4]; 3 days): increased
amount of LL-37 produced from U937 cells ([4]; 5 days): decreased sharply
production of hCAP 18 and LL-37 in U937 cells ([4]; 5.0×10^−7 M free drug): failed to induce production of significant amount

LL-37: human cathelicidin, small cationic antimicrobial peptide derived from hCAP-18
EC50 against Staphylococcus aureus (Staphylococcus aureus): 1.27 µg/mL
